Legend:
[1] = molecular target: T1, GSTD1 (C-terminal 81 residues of hD1 receptor) (Homo sapiens, UniProt P21728); assay: S-agarose pull-down assay with GSTD1 fusion protein; format: binding; settings: immunoblot with D1 receptor antibodies
T1 construct: C-terminal 81 amino acids of the hD1 receptor (residues 365-446); made in house; host or cells: S-Calcyon: BL21(DE3) E. coli
T1 sequence (P21728 365-446): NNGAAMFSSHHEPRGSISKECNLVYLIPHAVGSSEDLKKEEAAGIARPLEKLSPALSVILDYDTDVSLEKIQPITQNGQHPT
T1 sequence (Q9NYX4 93-217 partner): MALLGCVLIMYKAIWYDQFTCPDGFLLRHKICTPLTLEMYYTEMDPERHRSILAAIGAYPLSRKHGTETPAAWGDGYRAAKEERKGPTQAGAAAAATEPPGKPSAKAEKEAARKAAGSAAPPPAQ
Text: For pull-down assays, a 550 bp Nco I-Bgl II fragment from pACT-Calcyon was subcloned into pET30a (Novagen, Madison, Wis.) to produce the S-Calcyon fusion protein containing residues 93-217 of the predicted Calcyon protein as well as an N-terminal tag composed of the 15 residue S peptide of ribonuclease S (Richards, F. M., et al., The Enzymes. ed.: Boyer, P. D., Academic Press, N.Y., pp. 647-806 (1971)). The S-β-galactosidase fusion protein was composed of bacterial β-galactosidase protein tagged at its N-terminus with the S peptide. Fusion proteins were induced in BL2I(DE3) E. coli with IPTG, and coupled to S-agarose resin (Novagen, Madison, Wis.) by incubating soluble fractions of bacterial lysates with resin for 1 h at RT Following incubation, unbound proteins were eliminated by washing the resin three times in 50 volumes of 25 mM HEPES (pH 7.4), 50 mM NaCl. Interaction assays were performed with GSTD1 purified as described (Bergson, C., et al., J. Neurosci. 15:7821-36 (1995)) or solubilized lysates of D1 HEK293 cells in 25 mM HEPES (pH 7.4), 50 mM NaCl, 10% glycerol, 1% bovine serum albumin containing 0.5% NP-40. Peptidel 421-435 ([…]) (SEQ ID No. 3) and Peptide2 ([…]) (SEQ ID No. 4) were synthesized using an Applied Biosystems 430A Peptide Synthesizer using the FastMoc procedures and reagents supplied by Perkin-Elmer, Applied Biosystems division. […]

[2] = tested on: endogenous P2Y purinergic receptors; assay: Fura-2 Ca++ imaging, P2Y receptor-stimulated Ca++i release in D1 HEK293 cells; format: cell-based, human
Protocol: Drugs were prepared in HBS and manually applied.
Changes in Ca^++i levels were measured using ratiofluorometric imaging following bath application of ligand. Application of DA or 10:M […] produced no detectable response in untransfected D1 HEK293 cells, or cells expressing either EGFP or EGFP-Calcyon. In vivo, DA is considered primarily to be a neuromodulator. Therefore, to test whether Calcyon plays a role in the D1 receptor's ability to modulate other stimuli, we applied agonists of endogenous GPCRs prior to stimulating D1 receptors. […].

hD1 receptors [3] = molecular target: T2, hD1 receptors (Homo sapiens, UniProt P21728); assay: cAMP assay in transfected D1 HEK293 cells; format: cell-based
T2 construct: pLXSN (Clontech) plasmid containing full-length human D1 (Zhou et al., Nature 347:76-80 (1990)); expressed in transfected cells
Protocol: Following centrifugation to pellet proteins, cAMP levels in supernatant were determined by Direct cAMP Enzyme Immunoassay Kit (Assay Designs, Inc.) according to the supplier's protocol. […] Results (pmol cAMP/mg protein) are reported as average of three independent trans fection experiments.
It was determined whether Calcyon influenced D1 receptor coupling to the cAMP second messenger system in D1 HEK293 cells transfcctcd with expression plasmids encoding either enhanced green fluorescent protein (EGFP), or Calcyon tagged at its N-terminus by EGFP.
(§1) pEGFP-Calcyon was created by inserting a 0.9 kb Eco RI-Xho I fragment encoding full-length Calcyon into pEGFP-C3 (Clontech). pEGFP-C3 and pEGFP-Calcyon plasmid DNAs were transiently transfected into HEK293 and D1 HEK293 cell lines using Effectene™ (Qiagen) according to manufacturer's recommendations. 2.5×10^5 cells were seeded in 6-well plates, and transfected with 0.4:g plasmid DNA/well for Ca^++ imaging, cAMP, and immunoprecipitation assays.

hD1 receptors [4] = molecular target: T2, hD1 receptors; assay: Fura-2 Ca++ imaging of D1 receptor-stimulated Ca++i release in D1 HEK293 cells; format: cell-based; settings: for effect of PKC inhibitor on SKF81297-induced Ca++ mobilization: EGFP-Calcyon expressing D1 HEK293 cells, HCl
Protocol: For Ca^++ imaging, cells were rinsed with HBS (150 mM NaCl, 10 mM NaHEPES, 10 mM glucose, 2.5 mM KCI, 4 mM CaCl2 and 2 mM MgCl2, pH 7.4) and then loaded with 5 μM Fura-2 AM (Molecular Probes) in HBS at RT. After 20 min, cells were washed three times with HBS. Assays were performed at RT in 1.5 ml of HBS. Drugs were prepared in HBS and manually applied. […] Images were collected with a CCD camera connected to a Silicon Graphics workstation, and analyzed with Inovision-Ratiotool 4.3.5. Transfected cells were identified by illumination at 490 nm, and selected as areas for analysis. […] Fluorescence emission at 510 nm was monitored for each excitation wavelength via the CCD camera at 10 s intervals. Average pixel intensities within 6-8 selected areas (each area corresponded to single transfected cell) for both wavelengths at each time point were digitized and stored on the computer.
Changes in Ca^++i levels were measured using ratiofluorometric imaging following bath application of ligand. […] In vivo, DA is considered primarily to be a neuromodulator. Therefore, to test whether Calcyon plays a role in the D1 receptor's ability to modulate other stimuli, we applied agonists of endogenous GPCRs prior to stimulating D1 receptors.
as §1

protein kinase C (PKC) = assay: 32P-orthophosphate in vivo labeling and GFP mab immunoprecipitation of EGFP-Calcyon; format: cell-based, human; settings: 100 nM PMA, 0.5 h
Protocol: Approximately 40 h after transfection, pEGFP or pEGFP-Calcyon transfected D1 HEK293 cells were washed and placed in HBS (phosphate-free media) for 1.5 h prior to addition of [^32P] orthophosphate (135 μCi/ml). 2 h later, cells were treated with 100 nM PMA (Phorbol 12-Myristate 13-Acetate) in HBS for 0.5 h at 37°. Cells were then washed once in cold PBS and solubilized in mild lysis solution (Cytosignal, Irvine, Calif.) containing protease inhibitor cocktail (Boehringer Manheim) and phosphatase inhibitors, 50 μM NaF and 5 μM EGTA. Lysates were centrifuged for 5 min at 14,000 rpm and the supernatant was incubated at RT. for 1 h with mouse anti-GFP mab (Clontech, Palo Alto, Calif.) (diluted 1:100), followed by 0.02 volume of protein A/G agarose slurry for 30 min. The resin was washed twice with mild lysis solution, and adsorbed proteins eluted in SDS PAGE loading buffer (Laemmli, U.K., Nature 227:680-5 (1970)). Samples were analyzed by SDS-PAGE, using a 15% gel (Bio-Rad). The gel was dried and visualized using a Phosphorimager SF (Molecular Dynamics). […]
The Calcyon sequence contains two consensus protein kinase C (PKC) phosphorylation sites within its predicted cytoplasmic domain. […] GFP mab immunoprecipated a ^32P-labeled protein from pEGFP-Calcyon transfected cells with size equal to that detected by Calcyon antibodies. […]

D1 receptor = D1 receptor (Homo sapiens, UniProt P21728); assay: D1 receptor response to dopamine in presence of P24; settings: effect of P24
D1 DA receptors = molecular target: T3, D1 DA receptors (Homo sapiens, UniProt P21728); assay: co-immunoprecipitation with GFP mab from transfected D1-HEK293 cells; format: binding
T3 construct: pLXSN (Clontech) plasmid containing full-length human D1 (Zhou et al., Nature 347:76-80 (1990)); expressed in transfected cells; host or cells: D1-HEK293 cells, transiently transfected with pEGFP-P24
Text: A series of experiments were then undertaken to functionally characterize the interaction between P24 and D1 receptor proteins. D1-HEK293 cells, a HEK293 cell line that expresses hD1 receptors, and pEGFP-P24 expression plasmid were used for these studies. pEGFP-P24 encodes P24 protein tagged at its N-terminus by enhanced green fluorescent protein (EGFP). The N-terminal EGFP tag allowed testing to determine whether P24 directly associates with D1 DA receptors when coexpressed in mammalian cells in a “pull-down” assay. D1 receptors co-immunoprecipitated with EGFP-P24 fusion protein transiently expressed in transfected D1-HEK293 cells, and were “pulled down” by GFP mab.

T2 sequence (P21728 whole entry): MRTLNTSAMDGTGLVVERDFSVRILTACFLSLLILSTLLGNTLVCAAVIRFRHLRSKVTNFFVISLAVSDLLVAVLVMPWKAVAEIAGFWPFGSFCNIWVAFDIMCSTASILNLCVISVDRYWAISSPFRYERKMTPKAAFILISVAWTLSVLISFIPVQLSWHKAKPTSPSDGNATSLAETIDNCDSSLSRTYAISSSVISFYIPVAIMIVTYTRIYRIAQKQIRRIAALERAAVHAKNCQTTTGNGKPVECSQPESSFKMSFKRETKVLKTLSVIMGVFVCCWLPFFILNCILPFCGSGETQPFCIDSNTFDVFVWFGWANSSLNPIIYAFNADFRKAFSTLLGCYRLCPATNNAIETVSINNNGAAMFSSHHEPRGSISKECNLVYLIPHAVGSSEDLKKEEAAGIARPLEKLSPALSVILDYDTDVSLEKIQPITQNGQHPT
T3 sequence (P21728 whole entry): as above
D1 receptor, sequence (P21728 whole entry): as above

SVILDYDTDVSLEKI (listed as Homo sapiens) [Pep421-435]
block of interaction between GSTD1 and S-Calcyon by peptide [1]: prevented detection of the immunoreactive GSTD1 band

Nc1ncnc2c1ncn2[C@@H]1O[C@H](COP(=O)(O)OP(=O)(O)OP(=O)(O)O)[C@@H](O)[C@H]1O [ATP]
Ca++i response ([2]; D1 HEK293 cells): produced a rise in Ca^++i | duration of P2Y receptor Ca++i response ([2]; EGFP expressing cells): 300 to 400 s | duration of P2Y receptor Ca++i response ([2]; EGFP-Calcyon expressing cells, following application of BisI): 300 to 400 s

CN(C)CCCn1cc(C2=C(c3c[nH]c4ccccc34)C(=O)NC2=O)c2ccccc21.Cl [bisindolylmaleimide I HCl]
cAMP levels stimulated by ATP and SKF81297, BisI-treated compared to untreated cells (hD1 receptors [3]): similar | effect of PKC inhibitor on SKF81297-induced Ca++ mobilization (hD1 receptors [4]): considerably attenuated | effect of PKC inhibitor on SKF81297-induced Ca++ mobilization (hD1 receptors [4]; listed as bisindolylmalemide): inhibits Calcyon-enabled D1 stimulated Cai^++ release | effect of PKC inhibitor on D1 receptor-stimulated Ca++i release (hD1 receptors [4]; EGFP-Calcyon expressing cells treated with carbachol): reduced D1 receptor-stimulated Ca^++i release

CCCCCCCCCCCCCC(=O)O[C@@H]1[C@@H](C)[C@@]2(O)[C@@H](C=C(CO)C[C@]3(O)C(=O)C(C)=C[C@@H]23)[C@@H]2C(C)(C)[C@]12OC(C)=O [PMA, phorbol 12-myristate 13-acetate]
32P label incorporated into immunoprecipitated EGFP-Calcyon, treated vs untreated cells (protein kinase C (PKC)): approximately five times more label incorporated

B1: Calcyon: 217 residue single transmembrane protein encoded by K 37 cDNA (SEQ ID No. 1) that interacts with the hD1 DA receptor (protein)
chain: MVKLGCSFSGKPGKDPGDQDGAAMDSVPLISPLDISQLQPPLPDQVVIKTQTEYQLSSPDQQNFPDLEGQRLNCSHPEEGRRLPTARMIAFAMALLGCVLIMYKAIWYDQFTCPDGFLLRHKICTPLTLEMYYTEMDPERHRSILAAIGAYPLSRKHGTETPAAWGDGYRAAKEERKGPTQAGAAAAATEPPGKPSAKAEKEAARKAAGSAAPPPAQ
modifications: D1-Like dopamine receptor activity modifying protein
effect of Calcyon expression on D1 receptor-stimulated cAMP (hD1 receptors [3]; DA-stimulated cAMP, EGFP vs EGFP-Calcyon cells): does not alter D1 receptor activation of cAMP-dependent signaling pathways | threshold of D1 receptor response to dopamine (D1 receptor): lowers the threshold of D1 receptor response to dopamine (DA) by an order of magnitude | effect of Calcyon expression on D1 receptor-stimulated Ca++i mobilization (hD1 receptors [4]; EGFP-Calcyon vs EGFP expressing cells, D1 agonist after ATP): enhance the ability of D1 receptors to mobilize Ca^++i

B2: EGFP-P24: P24 protein tagged at its N-terminus by enhanced green fluorescent protein (protein)
chain: B1 chain
modifications: left off: large carriers
co-immunoprecipitation of D1 receptors (D1 DA receptors): co-immunoprecipitated

From patent US6469141B1, “D1-like dopamine receptor activity modifying protein” (Medical College of Georgia Research Institute Inc., priority 1998, dated 2002)
